PubChem BioAssay (NCI)
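Cells were grown in 96-well plates and exposed to each compound for 48 hours at five concentrations; endpoints were interpolated linearly between bracketing concentrations, or set to the highest concentration if not reached. Abbreviation: GI50, concentration required for 50% inhibition of growth. The concentration for full growth arrest is given as TGI.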

Legend:
Experiment in all cases: growth of human tumour cells (NCI), 48 h
HCC-2998 colon = test system: HCC-2998 colon
HCT-15 colon = test system: HCT-15 colon
LOX IMVI melanoma = test system: LOX IMVI melanoma
MDA-MB-435 = test system: MDA-MB-435
OVCAR-4 ovarian = test system: OVCAR-4 ovarian
OVCAR-8 ovarian = test system: OVCAR-8 ovarian
SF-268 CNS = test system: SF-268 CNS
SN12C renal = test system: SN12C renal
UACC-257 melanoma = test system: UACC-257 melanoma
UACC-62 melanoma = test system: UACC-62 melanoma

Structure (SMILES): CCNC(=O)NNc1ncnc2c1c(-c1ccc(Cl)cc1)cn2-c1ccc(C)cc1
- TGI (HCC-2998 colon): 31.3 µM
- TGI (HCT-15 colon): 47.8 µM
- TGI (LOX IMVI melanoma): 36.4 µM
- TGI (MDA-MB-435): 30.7 µM
- TGI (OVCAR-4 ovarian): 40.8 µM
- TGI (OVCAR-8 ovarian): 28.8 µM
- TGI (SF-268 CNS): 39 µM
- TGI (SN12C renal): 30.3 µM
- TGI (UACC-257 melanoma): 35.7 µM
- TGI (UACC-62 melanoma): 33.3 µM

Structure (SMILES): Nc1ncnc2c1sc(=S)n2-c1ccccc1
- TGI (HCC-2998 colon): > 100 µM
- TGI (HCT-15 colon): > 100 µM
- TGI (LOX IMVI melanoma): > 100 µM
- TGI (OVCAR-4 ovarian): > 100 µM
- TGI (OVCAR-8 ovarian): > 100 µM
- TGI (SF-268 CNS): > 100 µM
- TGI (SN12C renal): > 100 µM
- TGI (UACC-257 melanoma): > 100 µM
- TGI (UACC-62 melanoma): > 100 µM

Structure (SMILES): CCCCCCCCCC(O)CC(=O)c1c(O)cccc1O (stereo not given)
- TGI (HCC-2998 colon): 26.8 µM
- TGI (HCT-15 colon): 39.4 µM
- TGI (LOX IMVI melanoma): 46 µM
- TGI (MDA-MB-435): 68.1 µM
- TGI (OVCAR-4 ovarian): 35.2 µM
- TGI (OVCAR-8 ovarian): 38.6 µM
- TGI (SF-268 CNS): 35.9 µM
- TGI (SN12C renal): 63.9 µM
- TGI (UACC-257 melanoma): 38.7 µM

Structure (SMILES): CC(=O)Oc1c2c(c(OC(C)=O)c3c1n(C(C)=O)c1ccccc1n3C(C)=O)n(C(C)=O)c1ccccc1n2C(C)=O
- TGI (HCC-2998 colon): 18.9 µM
- TGI (HCT-15 colon): 13 µM
- TGI (LOX IMVI melanoma): 24.6 µM
- TGI (OVCAR-4 ovarian): 40.5 µM
- TGI (SF-268 CNS): 24.9 µM
- TGI (SN12C renal): 19.3 µM
- TGI (UACC-257 melanoma): 13 µM
- TGI (UACC-62 melanoma): 37 µM

Structure (SMILES): C=CCOC(=O)c1c(C)n([O-])c2cc(Cl)c(Cl)cc2[n+]1=O
- TGI (HCC-2998 colon): 26.5 µM
- TGI (HCT-15 colon): 31.7 µM
- TGI (LOX IMVI melanoma): 32.9 µM
- TGI (MDA-MB-435): 41.2 µM
- TGI (OVCAR-4 ovarian): 19.1 µM
- TGI (OVCAR-8 ovarian): 41.9 µM
- TGI (SF-268 CNS): 29.5 µM
- TGI (SN12C renal): 54.7 µM
- TGI (UACC-257 melanoma): 37.9 µM
- TGI (UACC-62 melanoma): 41.3 µM

Structure (SMILES): C=CC(C)(C)C1(CC(OC)OC)C(=O)N(C)c2ccccc21 (stereo not given)
- TGI (HCC-2998 colon): > 25 µM
- TGI (HCT-15 colon): > 25 µM
- TGI (LOX IMVI melanoma): > 25 µM
- TGI (MDA-MB-435): > 25 µM
- TGI (OVCAR-4 ovarian): > 25 µM
- TGI (OVCAR-8 ovarian): > 25 µM
- TGI (SF-268 CNS): > 25 µM
- TGI (SN12C renal): > 25 µM
- TGI (UACC-257 melanoma): > 25 µM
- TGI (UACC-62 melanoma): > 25 µM

Structure (SMILES): Fc1ccc2[nH]cc(-c3nc(-c4c[nH]c5ccncc45)cs3)c2c1
- GI50 (HCC-2998 colon): 1.92 µM
- TGI (HCC-2998 colon): 3.49 µM
- GI50 (SN12C renal): 1.52 µM
- TGI (SN12C renal): 2.92 µM
- GI50 (UACC-257 melanoma): 1.91 µM
- TGI (UACC-257 melanoma): 3.58 µM
- GI50 (UACC-62 melanoma): 1.72 µM
- TGI (UACC-62 melanoma): 3.2 µM

Structure (SMILES): O=C(OCC1CCCN2CCCCC12)c1cccnc1 (stereo not given)
- TGI (HCC-2998 colon): > 100 µM
- TGI (HCT-15 colon): > 100 µM
- TGI (LOX IMVI melanoma): > 100 µM
- TGI (MDA-MB-435): > 100 µM
- TGI (OVCAR-4 ovarian): > 100 µM
- TGI (OVCAR-8 ovarian): > 100 µM
- TGI (SF-268 CNS): > 100 µM
- TGI (SN12C renal): > 100 µM
- TGI (UACC-257 melanoma): > 100 µM
- TGI (UACC-62 melanoma): > 100 µM

Structure (SMILES): c1ccc2[nH]c3c(N=NC4=NCCN4)c4ccccc4c-3nc2c1
- TGI (HCC-2998 colon): 14.9 µM
- TGI (HCT-15 colon): 15.8 µM
- TGI (MDA-MB-435): 21.8 µM
- TGI (OVCAR-4 ovarian): > 100 µM
- TGI (OVCAR-8 ovarian): 9.39 µM
- TGI (SF-268 CNS): > 100 µM
- TGI (SN12C renal): > 100 µM
- TGI (UACC-257 melanoma): 36.5 µM
- TGI (UACC-62 melanoma): 21.1 µM

Structure (SMILES): CC(=O)OC12CC(C(F)(F)F)(C(F)(F)F)OC1(OC(C)=O)CC(C(F)(F)F)(C(F)(F)F)O2 (stereo not given)
- TGI (HCC-2998 colon): > 100 µM
- TGI (HCT-15 colon): > 100 µM
- TGI (LOX IMVI melanoma): 34.9 µM
- TGI (MDA-MB-435): > 100 µM
- TGI (OVCAR-4 ovarian): > 100 µM
- TGI (OVCAR-8 ovarian): > 100 µM
- TGI (SF-268 CNS): 6.37 µM
- TGI (SN12C renal): > 100 µM
- TGI (UACC-257 melanoma): > 100 µM
- TGI (UACC-62 melanoma): > 100 µM

Structure (SMILES): Cc1c(OCCCOc2ccc3c(=O)cc(-c4ccccc4)oc3c2C)ccc2c(=O)cc(-c3ccccc3)oc12
- TGI (HCT-15 colon): > 100 µM
- TGI (LOX IMVI melanoma): > 100 µM
- TGI (OVCAR-8 ovarian): > 100 µM
- TGI (SF-268 CNS): > 100 µM
- TGI (UACC-257 melanoma): > 100 µM
- TGI (UACC-62 melanoma): > 100 µM

Structure (SMILES): CCCCOc1c(C(=O)O)cc(Br)cc1C(=O)O
- TGI (HCC-2998 colon): > 100 µM
- TGI (HCT-15 colon): > 100 µM
- TGI (LOX IMVI melanoma): > 100 µM
- TGI (MDA-MB-435): > 100 µM
- TGI (OVCAR-4 ovarian): > 100 µM
- TGI (OVCAR-8 ovarian): > 100 µM
- TGI (SF-268 CNS): > 100 µM
- TGI (SN12C renal): > 100 µM
- TGI (UACC-257 melanoma): > 100 µM

Structure (SMILES): CCn1c(-c2ccc(OC)cc2)nc2c1C(=O)c1ccccc1C2=O
- TGI (HCC-2998 colon): > 100 µM
- TGI (HCT-15 colon): > 100 µM
- TGI (MDA-MB-435): > 100 µM
- TGI (OVCAR-4 ovarian): > 100 µM
- TGI (OVCAR-8 ovarian): > 100 µM
- TGI (SF-268 CNS): > 100 µM
- TGI (SN12C renal): > 100 µM
- TGI (UACC-257 melanoma): > 100 µM
- TGI (UACC-62 melanoma): > 100 µM

Structure (SMILES): C[N+](C)=c1ccc2nc3c(ccc4ccccc43)oc-2c1
- TGI (HCC-2998 colon): 37.7 µM
- TGI (HCT-15 colon): 34.6 µM
- TGI (LOX IMVI melanoma): 15.4 µM
- TGI (OVCAR-4 ovarian): 26.3 µM
- TGI (OVCAR-8 ovarian): 26 µM
- TGI (SF-268 CNS): 29.7 µM
- TGI (SN12C renal): 31.8 µM
- TGI (UACC-257 melanoma): 16.4 µM
- TGI (UACC-62 melanoma): 16.3 µM

Structure (SMILES): CO[C@H]1CC[C@]2(C)C3=CC[C@@]4(C)C(CC[C@@H]4C(C)CC[C@@H](C)C(C)C)C(=CCC2C1)O3 (stereo not given in full)
- TGI (HCC-2998 colon): > 25 µM
- TGI (HCT-15 colon): > 25 µM
- TGI (LOX IMVI melanoma): > 25 µM
- TGI (OVCAR-4 ovarian): > 25 µM
- TGI (OVCAR-8 ovarian): > 25 µM
- TGI (SF-268 CNS): > 25 µM
- TGI (SN12C renal): > 25 µM
- TGI (UACC-257 melanoma): > 25 µM
- TGI (UACC-62 melanoma): > 25 µM

Structure (SMILES): N/C(=N\S(=O)(=O)c1ccc(-c2ccccn2)s1)Nc1ccc(Cl)cc1
- TGI (HCT-15 colon): 38 µM
- TGI (LOX IMVI melanoma): 33.5 µM
- TGI (OVCAR-4 ovarian): 37.7 µM
- TGI (OVCAR-8 ovarian): 37.6 µM
- TGI (SF-268 CNS): 36.6 µM
- TGI (SN12C renal): 30.3 µM
- TGI (UACC-257 melanoma): 21.1 µM
- TGI (UACC-62 melanoma): 26.4 µM

Structure (SMILES): COC(=O)[C@@H]1[C@H](O)CCC2=C(CC(=O)c3ccoc3)[C@H](C)CC[C@]21C
- TGI (HCC-2998 colon): > 50 µM
- TGI (HCT-15 colon): > 50 µM
- TGI (LOX IMVI melanoma): > 50 µM
- TGI (OVCAR-4 ovarian): > 50 µM
- TGI (OVCAR-8 ovarian): > 50 µM
- TGI (SN12C renal): > 50 µM
- TGI (UACC-257 melanoma): > 50 µM
- TGI (UACC-62 melanoma): > 50 µM

Structure (SMILES): O=C(NNS(=O)(=O)c1ccc(Br)cc1)c1ccc(Cl)cc1NC(=O)C12CC3CC(CC(C3)C1)C2
- TGI (HCT-15 colon): 45.4 µM
- TGI (LOX IMVI melanoma): 28.4 µM
- TGI (MDA-MB-435): 25.8 µM
- TGI (OVCAR-4 ovarian): 23.8 µM
- TGI (OVCAR-8 ovarian): 31.9 µM
- TGI (SF-268 CNS): 24.9 µM
- TGI (SN12C renal): 36.1 µM
- TGI (UACC-257 melanoma): 26.9 µM
- TGI (UACC-62 melanoma): 25.6 µM

Structure (SMILES): CC(C(=O)NCCNC(=O)CCC(=O)N(C)O)C(=O)NCCNC(=O)CCC(=O)N(C)O
- TGI (HCC-2998 colon): > 100 µM
- TGI (HCT-15 colon): > 100 µM
- TGI (LOX IMVI melanoma): > 100 µM
- TGI (MDA-MB-435): > 100 µM
- TGI (OVCAR-4 ovarian): > 100 µM
- TGI (OVCAR-8 ovarian): > 100 µM
- TGI (SF-268 CNS): > 100 µM
- TGI (UACC-257 melanoma): > 100 µM
- TGI (UACC-62 melanoma): > 100 µM

Structure (SMILES): Brc1c2nc3ccccc3nc2n2ccc3ccccc3c12
- TGI (HCC-2998 colon): > 100 µM
- TGI (HCT-15 colon): > 100 µM
- TGI (LOX IMVI melanoma): > 100 µM
- TGI (OVCAR-4 ovarian): > 100 µM
- TGI (OVCAR-8 ovarian): > 100 µM
- TGI (SF-268 CNS): > 100 µM
- TGI (SN12C renal): > 100 µM
- TGI (UACC-257 melanoma): > 100 µM
- TGI (UACC-62 melanoma): > 100 µM

Structure (SMILES): C[N+](C)(C)CCOC(=O)/C=C/c1cnc[nH]1
- TGI (HCC-2998 colon): > 500 µM
- TGI (HCT-15 colon): > 500 µM
- TGI (LOX IMVI melanoma): > 500 µM
- TGI (OVCAR-4 ovarian): > 500 µM
- TGI (OVCAR-8 ovarian): > 500 µM
- TGI (SF-268 CNS): > 500 µM
- TGI (SN12C renal): > 500 µM
- TGI (UACC-257 melanoma): > 500 µM
- TGI (UACC-62 melanoma): > 500 µM

Structure (SMILES): CC(C)(C)c1ccc(O)c(C(c2ccc([N+](=O)[O-])cc2)c2cc(C(C)(C)C)ccc2O)c1
- TGI (HCC-2998 colon): 3.44 µM
- TGI (HCT-15 colon): 4.27 µM
- TGI (OVCAR-4 ovarian): 3.91 µM
- TGI (OVCAR-8 ovarian): 7.82 µM
- TGI (SF-268 CNS): 3.16 µM
- TGI (SN12C renal): 4.02 µM
- TGI (UACC-257 melanoma): 3.41 µM
- TGI (UACC-62 melanoma): 3.2 µM
